In ChEMBL document CHEMBL1201862, “PubChem BioAssay data set” (2004):
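Tested at 5 concentrations; 48 h exposure; 96-well plates; endpoints linearly interpolated, else capped at highest concentration. At the GI50, growth is halved.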 Calls of active or inactive are those of the source. Cut-off read from the data, not from the text of the source: active = GI50 up to about 1.1 µM and inactive = higher.

How the values were obtained:
Test in all cases: inhibition of tumour cell growth, NCI panel, 48 h
[1] = tested on: A498
[2] = tested on: NCI-H226
[3] = tested on: Malme-3M
[4] = tested on: MDA-MB-231
[5] = tested on: SN12C
[6] = tested on: OVCAR-5
[7] = tested on: SK-MEL-5
[8] = tested on: HCC 2998
[9] = tested on: SNB-19
[10] = tested on: NCI-H23
[11] = tested on: MDA-MB-435
[12] = tested on: U-251
[13] = tested on: NCI-H460
[14] = tested on: PC-3
[15] = tested on: T47D
[16] = tested on: NCI/ADR-RES
[17] = tested on: DU-145
[18] = tested on: EKVX
[19] = tested on: HT-29
[20] = tested on: BT-549
[21] = tested on: HOP-62
[22] = tested on: SF-268
[23] = tested on: HCT-116
[24] = tested on: RPMI-8226
[25] = tested on: SR
[26] = tested on: OVCAR-4
[27] = tested on: Hs-578T
[28] = tested on: OVCAR-8
[29] = tested on: CCRF-CEM
[30] = tested on: LOX IMVI
[31] = tested on: SK-MEL-28
[32] = tested on: K562
[33] = tested on: SK-MEL-2
[34] = tested on: HL-60
[35] = tested on: UACC-62
[36] = tested on: A549
[37] = tested on: ACHN
[38] = tested on: RXF 393
[39] = tested on: M14
[40] = tested on: OVCAR-3
[41] = tested on: SW-620
[42] = tested on: HCT-15
[43] = tested on: 786-0
[44] = tested on: CAKI-1
[45] = tested on: MOLT-4
[46] = tested on: KM12
[47] = tested on: IGROV-1
[48] = tested on: UACC-257
[49] = tested on: MCF7
[50] = tested on: COLO 205
[51] = tested on: HOP-92
[52] = tested on: SNB-75
[53] = tested on: SK-OV-3
[54] = tested on: SF-539
[55] = tested on: NCI-H522
[56] = tested on: UO-31
[57] = tested on: SF-295
[58] = tested on: TK-10
[59] = tested on: MDA-N

COc1ccc2oc(=N)c(C(=O)Nc3ccccn3)cc2c1
GI50 [1]: > 100 µM (inactive)
GI50 [2]: 60.3 µM (inactive)
GI50 [3]: 61.2 µM (inactive)
GI50 [4]: > 100 µM (inactive)
GI50 [5]: > 100 µM (inactive)
GI50 [6]: > 100 µM (inactive)
GI50 [7]: > 100 µM (inactive)
GI50 [8]: > 100 µM (inactive)
GI50 [9]: 87.1 µM (inactive)
GI50 [10]: > 100 µM (inactive)
GI50 [11]: > 100 µM (inactive)
GI50 [12]: > 100 µM (inactive)
GI50 [13]: > 100 µM (inactive)
GI50 [14]: > 100 µM (inactive)
GI50 [15]: 37 µM (inactive)
GI50 [16]: > 100 µM (inactive)
GI50 [17]: > 100 µM (inactive)
GI50 [18]: 62.4 µM (inactive)
GI50 [19]: > 100 µM (inactive)
GI50 [20]: > 100 µM (inactive)
GI50 [21]: > 100 µM (inactive)
GI50 [22]: > 100 µM (inactive)
GI50 [23]: > 100 µM (inactive)
GI50 [24]: > 100 µM (inactive)
GI50 [25]: > 100 µM (inactive)
GI50 [26]: > 100 µM (inactive)
GI50 [27]: > 100 µM (inactive)
GI50 [28]: > 100 µM (inactive)
GI50 [29]: > 100 µM (inactive)
GI50 [30]: > 100 µM (inactive)
GI50 [31]: > 100 µM (inactive)
GI50 [32]: > 100 µM (inactive)
GI50 [33]: 23.2 µM (inactive)
GI50 [34]: > 100 µM (inactive)
GI50 [35]: 71.4 µM (inactive)
GI50 [36]: > 100 µM (inactive)
GI50 [37]: 76 µM (inactive)
GI50 [38]: > 100 µM (inactive)
GI50 [39]: > 100 µM (inactive)
GI50 [40]: > 100 µM (inactive)
GI50 [41]: > 100 µM (inactive)
GI50 [42]: > 100 µM
GI50 [43]: > 100 µM (inactive)
GI50 [44]: > 100 µM (inactive)
GI50 [45]: > 100 µM (inactive)
GI50 [46]: > 100 µM (inactive)
GI50 [47]: 53.6 µM (inactive)
GI50 [48]: > 100 µM (inactive)
GI50 [49]: 35.1 µM (inactive)
GI50 [50]: > 100 µM (inactive)
GI50 [51]: > 100 µM (inactive)
GI50 [52]: > 100 µM (inactive)
GI50 [53]: > 100 µM (inactive)

O=c1cc(-c2ccccc2)nc2[nH]ccn12
GI50 [1]: > 10 µM (inactive)
GI50 [2]: > 10 µM (inactive)
GI50 [54]: > 10 µM (inactive)
GI50 [3]: > 10 µM (inactive)
GI50 [4]: > 10 µM (inactive)
GI50 [5]: > 10 µM (inactive)
GI50 [6]: > 10 µM (inactive)
GI50 [7]: > 10 µM (inactive)
GI50 [8]: > 10 µM (inactive)
GI50 [9]: > 10 µM (inactive)
GI50 [10]: > 10 µM (inactive)
GI50 [11]: > 10 µM (inactive)
GI50 [12]: > 10 µM (inactive)
GI50 [13]: > 10 µM (inactive)
GI50 [14]: > 10 µM (inactive)
GI50 [55]: > 10 µM (inactive)
GI50 [15]: > 10 µM (inactive)
GI50 [16]: > 10 µM (inactive)
GI50 [17]: > 10 µM (inactive)
GI50 [18]: > 10 µM (inactive)
GI50 [56]: 7.87 µM (inactive)
GI50 [19]: > 10 µM (inactive)
GI50 [21]: > 10 µM (inactive)
GI50 [22]: > 10 µM (inactive)
GI50 [23]: > 10 µM (inactive)
GI50 [24]: > 10 µM (inactive)
GI50 [25]: > 10 µM (inactive)
GI50 [26]: > 10 µM (inactive)
GI50 [27]: > 10 µM (inactive)
GI50 [28]: > 10 µM (inactive)
GI50 [57]: > 10 µM (inactive)
GI50 [29]: > 10 µM (inactive)
GI50 [30]: > 10 µM (inactive)
GI50 [31]: > 10 µM (inactive)
GI50 [58]: > 10 µM (inactive)
GI50 [59]: > 10 µM (inactive)
GI50 [32]: > 10 µM (inactive)
GI50 [33]: > 10 µM (inactive)
GI50 [34]: > 10 µM (inactive)
GI50 [35]: > 10 µM (inactive)
GI50 [36]: > 10 µM (inactive)
GI50 [37]: > 10 µM (inactive)
GI50 [38]: > 10 µM (inactive)
GI50 [39]: > 10 µM (inactive)
GI50 [40]: > 10 µM (inactive)
GI50 [41]: > 10 µM (inactive)
GI50 [42]: > 10 µM
GI50 [44]: > 10 µM (inactive)
GI50 [45]: > 10 µM (inactive)
GI50 [46]: > 10 µM (inactive)
GI50 [47]: > 10 µM (inactive)
GI50 [49]: > 10 µM (inactive)
GI50 [50]: > 10 µM (inactive)
GI50 [52]: 6.25 µM (inactive)
GI50 [53]: > 10 µM (inactive)
